PubChem BioAssay AID248 (DTP/NCI, 2004)
Several values for one entry are separate records, joined by “and”; a condition that tells them apart may be missing. Equal values may be shown once. Inconclusive results and toxic doses are left out. Rule as the data show it: active = T/C of 150% or more; inactive = T/C below 125%.

System: L1210 leukemia ip in BDF1 mice, survival T/C
Assay: NCI In Vivo Anticancer Drug Screen. Data for tumor model L1210 Leukemia (intraperitoneal) in B6D2F1 (BDF1) mice
Details: endpoint: mean survival time, higher = longer survival
Method in brief: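 Tumor was transplanted into mice, which were then dosed with test compound or vehicle alone. Survival was recorded for each group, and the treated figure was expressed relative to the control figure.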

[1] = dose: 25.0 mg/kg/injection, schedule: Q04DX002 (ip), vehicle: Klucel (hydroxypropylcellulose) (HPC)
[2] = dose: 50.0 mg/kg/injection, schedule: Q04DX002 (ip), vehicle: Klucel (hydroxypropylcellulose) (HPC)
[3] = dose: 100.0 mg/kg/injection, schedule: Q04DX003 (ip), vehicle: saline
[4] = dose: 200.0 mg/kg/injection, schedule: Q04DX003 (ip), vehicle: saline
[5] = dose: 400.0 mg/kg/injection, schedule: Q04DX003 (ip), vehicle: saline
[6] = dose: 100.0 mg/kg/injection, schedule: Q04DX003 (ip), vehicle: Klucel (hydroxypropylcellulose) (HPC)
[7] = dose: 200.0 mg/kg/injection, schedule: Q04DX003 (ip), vehicle: Klucel (hydroxypropylcellulose) (HPC)
[8] = dose: 400.0 mg/kg/injection, schedule: Q04DX003 (ip), vehicle: Klucel (hydroxypropylcellulose) (HPC)
[9] = dose: 50.0 mg/kg/injection, schedule: Q01DX009 (ip), vehicle: Klucel (hydroxypropylcellulose) (HPC)
[10] = dose: 100.0 mg/kg/injection, schedule: Q01DX009 (ip), vehicle: Klucel (hydroxypropylcellulose) (HPC)
[11] = dose: 200.0 mg/kg/injection, schedule: Q01DX009 (ip), vehicle: Klucel (hydroxypropylcellulose) (HPC)
[12] = dose: 100.0 mg/kg/injection, schedule: Q01DX001 (ip), vehicle: other
[13] = dose: 100.0 mg/kg/injection, schedule: Q04DX002 (ip), vehicle: saline with Tween-80
[14] = dose: 200.0 mg/kg/injection, schedule: Q04DX002 (ip), vehicle: saline with Tween-80
[15] = dose: 400.0 mg/kg/injection, schedule: Q04DX002 (ip), vehicle: saline with Tween-80
[16] = dose: 400.0 mg/kg/injection, schedule: Q01DX009 (ip), vehicle: Klucel (hydroxypropylcellulose) (HPC)

Measured: T/C

CC(C)(O)CNC1CCCCC1
inactive: dose: 75.0 mg/kg/injection, schedule: Q01DX001 (ip), vehicle: saline 108 % of control

O=C(OCc1ccccc1CN1CCCCC1)c1ccc([N+](=O)[O-])cc1
inactive: [1] 101 % of control | [2] 94 % of control | dose: 100.0 mg/kg/injection, schedule: Q04DX002 (ip), vehicle: Klucel (hydroxypropylcellulose) (HPC) 90 % of control

O=c1[nH]ccn2cncc12
inactive: [3] 93 % of control | [4] 103 % of control | [5] 106 % of control

CS(=O)(=O)OCC1(c2ccccc2)CCCCC1
inactive: dose: 100.0 mg/kg/injection, schedule: Q01DX001 (sc), vehicle: olive oil, sesame oil, peanut oil 101 % of control | dose: 200.0 mg/kg/injection, schedule: Q01DX001 (sc), vehicle: olive oil, sesame oil, peanut oil 103 % of control | dose: 400.0 mg/kg/injection, schedule: Q01DX001 (sc), vehicle: olive oil, sesame oil, peanut oil 108 % of control

CC(=O)c1ccc(Oc2ccc([N+](=O)[O-])cc2)cc1
inactive: [6] 98 % of control | [7] 96 % of control | [8] 101 % of control

Cc1ccc(S(=O)(=O)N(C)c2cc(Cl)c(C#N)cc2Cl)cc1
inactive: [6] 97 % of control | [7] 97 % of control | [8] 100 % of control

CC(C)(C)CCCC1C(=O)N(c2ccccc2)N(c2ccccc2)C1=O
inactive: [9] 110 % of control | [10] 110 % of control | [6] 106 % of control | [11] 112 % of control | [7] 96 % of control | [8] 101 % of control

CC1=C2[C@H]3OC(=O)[C@H](C)[C@@H]3CC[C@@]2(C)C=CC1=O
inactive: [12] 103 % of control | dose: 200.0 mg/kg/injection, schedule: Q01DX001 (ip), vehicle: other 95 % of control

CCOC(=O)C=C1CCP(C)CC1 (stereo not given)
inactive: dose: 75.0 mg/kg/injection, schedule: Q01DX001 (ip), vehicle: carboxymethylcellulose (CMC) 103 % of control | dose: 150.0 mg/kg/injection, schedule: Q01DX001 (ip), vehicle: carboxymethylcellulose (CMC) 94 % of control

CCCCCCCCCCCn1cnc2c(N)ncnc21
inactive: dose: 12.5 mg/kg/injection, schedule: Q01DX005 (ip), vehicle: other 93 % of control | dose: 25.0 mg/kg/injection, schedule: Q01DX005 (ip), vehicle: other 103 % of control | dose: 50.0 mg/kg/injection, schedule: Q01DX005 (ip), vehicle: other 92 % of control | dose: 100.0 mg/kg/injection, schedule: Q01DX005 (ip), vehicle: other 103 % of control | dose: 200.0 mg/kg/injection, schedule: Q01DX005 (ip), vehicle: other 104 % of control

CC(C)CC(=O)N(C)c1ccccc1
inactive: dose: 50.0 mg/kg/injection, schedule: Q01DX001 (ip), vehicle: carboxymethylcellulose (CMC) 111 % of control | dose: 100.0 mg/kg/injection, schedule: Q01DX001 (ip), vehicle: carboxymethylcellulose (CMC) 108 % of control | dose: 200.0 mg/kg/injection, schedule: Q01DX001 (ip), vehicle: carboxymethylcellulose (CMC) 100 % of control | dose: 400.0 mg/kg/injection, schedule: Q01DX001 (ip), vehicle: carboxymethylcellulose (CMC) 97 % of control

O=C(NC(=S)Nc1cccc(F)c1)c1cccc([N+](=O)[O-])c1
inactive: dose: 100.0 mg/kg/injection, schedule: Q01DX001 (ip), vehicle: saline with Tween-80 98 % of control | dose: 100.0 mg/kg/injection, schedule: Q01DX009 (ip), vehicle: saline with Tween-80 94 % of control and 95 % of control | [13] 101 % of control and 111 % of control | dose: 100.0 mg/kg/injection, schedule: Q04DX003 (ip), vehicle: saline with Tween-80 98 % of control | dose: 200.0 mg/kg/injection, schedule: Q01DX001 (ip), vehicle: saline with Tween-80 93 % of control | dose: 200.0 mg/kg/injection, schedule: Q01DX009 (ip), vehicle: saline with Tween-80 98 % of control and 90 % of control | [14] 92 % of control and 96 % of control | dose: 200.0 mg/kg/injection, schedule: Q04DX003 (ip), vehicle: saline with Tween-80 102 % of control | dose: 400.0 mg/kg/injection, schedule: Q01DX009 (ip), vehicle: saline with Tween-80 92 % of control and 94 % of control | [15] 101 % of control and 103 % of control | dose: 400.0 mg/kg/injection, schedule: Q04DX003 (ip), vehicle: saline with Tween-80 101 % of control

CC1(C)C(N2CCCCC2)CS1(=O)=O (stereo not given)
inactive: dose: 12.5 mg/kg/injection, schedule: Q01DX009 (ip), vehicle: saline sonified 103 % of control | dose: 25.0 mg/kg/injection, schedule: Q01DX009 (ip), vehicle: saline sonified 98 % of control | dose: 50.0 mg/kg/injection, schedule: Q01DX009 (ip), vehicle: saline sonified 94 % of control

CC(=O)Nn1cnc2ccccc2c1=O
inactive: [9] 98 % of control | [10] 98 % of control | [11] 98 % of control

Cc1ccc2c(c1)C1(C)C=CC(=O)CC1O2 (stereo not given)
inactive: [13] 106 % of control | [14] 110 % of control | [15] 106 % of control

CCCCCCCCCCCCOCCOCCOCC(N)=O
inactive: dose: 100.0 mg/kg/injection, schedule: Q01DX009 (ip), vehicle: saline 104 % of control | [3] 97 % of control | dose: 200.0 mg/kg/injection, schedule: Q01DX009 (ip), vehicle: saline 100 % of control | [4] 109 % of control | dose: 400.0 mg/kg/injection, schedule: Q01DX009 (ip), vehicle: saline 96 % of control | [5] 97 % of control

CCCC[P+](CCCC)(CCCC)Cc1ccc([N+](=O)[O-])cc1
inactive: dose: 12.5 mg/kg/injection, schedule: Q01DX001 (ip), vehicle: Klucel (hydroxypropylcellulose) (HPC) 97 % of control | dose: 12.5 mg/kg/injection, schedule: Q04DX002 (ip), vehicle: Klucel (hydroxypropylcellulose) (HPC) 106 % of control | dose: 25.0 mg/kg/injection, schedule: Q01DX001 (ip), vehicle: Klucel (hydroxypropylcellulose) (HPC) 101 % of control | dose: 25.0 mg/kg/injection, schedule: Q01DX009 (ip), vehicle: Klucel (hydroxypropylcellulose) (HPC) 99 % of control | [1] 106 % of control | dose: 50.0 mg/kg/injection, schedule: Q01DX001 (ip), vehicle: Klucel (hydroxypropylcellulose) (HPC) 101 % of control | [2] 87 % of control

COC(=O)C(C)(C)Br
inactive: dose: 100.0 mg/kg/injection, schedule: Q01DX009 (ip), vehicle: saline sonified 94 % of control | dose: 200.0 mg/kg/injection, schedule: Q01DX009 (ip), vehicle: saline sonified 100 % of control | dose: 400.0 mg/kg/injection, schedule: Q01DX009 (ip), vehicle: saline sonified 100 % of control

NCC(=O)CCS(=O)(=O)c1ccc(Cl)cc1
inactive: dose: 12.5 mg/kg/injection, schedule: Q04DX003 (ip), vehicle: saline 96 % of control | dose: 25.0 mg/kg/injection, schedule: Q04DX003 (ip), vehicle: saline 91 % of control | dose: 50.0 mg/kg/injection, schedule: Q04DX003 (ip), vehicle: saline 93 % of control

OCc1cccs1
inactive: [10] 108 % of control | [6] 97 % of control | [11] 94 % of control | [7] 97 % of control | [16] 103 % of control | [8] 97 % of control

CN(C)C=Nc1ccc(Cl)cc1
inactive: dose: 25.0 mg/kg/injection, schedule: Q01DX001 (ip), vehicle: other 93 % of control | dose: 50.0 mg/kg/injection, schedule: Q01DX001 (ip), vehicle: other 101 % of control | dose: 50.0 mg/kg/injection, schedule: Q01DX001 (ip), vehicle: saline 100 % of control | dose: 50.0 mg/kg/injection, schedule: Q04DX003 (ip), vehicle: other 90 % of control | [12] 103 % of control and 91 % of control | dose: 100.0 mg/kg/injection, schedule: Q04DX003 (ip), vehicle: other 102 % of control | dose: 200.0 mg/kg/injection, schedule: Q04DX003 (ip), vehicle: other 101 % of control

Nc1nc(N)c2c(n1)[n+]([O-])c1ccccc1[n+]2[O-]
inactive: dose: 100.0 mg/kg/injection, schedule: Q01DX001 (ip), vehicle: saline 103 % of control | dose: 200.0 mg/kg/injection, schedule: Q01DX001 (ip), vehicle: saline 103 % of control | dose: 400.0 mg/kg/injection, schedule: Q01DX001 (ip), vehicle: saline 94 % of control

CCOC(=O)C(C(=O)OCC)N(CC)CC
inactive: [10] 96 % of control | [6] 98 % of control | [7] 93 % of control | [16] 95 % of control | [8] 109 % of control
